We go through seven compounds from article PMC5791048 (Journal of Natural Products, 2017).

Molecules are shown by their SMILES. A value given as a limit tells only on which side of the number the result lay.

The data set can be described thus: A549 cytotoxicity assay. In kind it is cell-based. To be noted: human, A549 cells (human lung carcinoma).

As to `C=C(C)[C@@H]1CCC2=C[C@H](C[C@@]3(C)O[C@@H]3C3=CC(C=O)=C(C1)O3)OC2=O` [pukalide aldehyde (6), pukalide aldehyde], the IC50 at 72 h is above 50 µg/mL.
In the case of `C=C(C)[C@@H]1/C=C/[C@]23O[C@H]2[C@H](C[C@](C)(O)[C@@H](OC(C)=O)C2=CC(C=O)=C(C1)O2)OC3=O` [keikipukalide D (4), keikipukalide D] it was above 50 µg/mL; in that of `C=C(C)[C@@H]1/C=C/[C@]23O[C@H]2[C@H](C[C@@]2(C)O[C@@H]2C2=CC(C=O)=C(C1)O2)OC3=O` [keikipukalide A (1), keikipukalide A], above 50 µg/mL; in that of `C=C(C)[C@H]1CC2=C(C=O)C=C(O2)[C@H]2O[C@]2(C)C[C@H]2C=C(C(=O)O2)[C@@H](OC(C)=O)C1` [keikipukalide E (5), keikipukalide E], above 50 µg/mL.
As to `C=C(C)[C@@H]1C/C=C2\C(=O)O[C@@H](C[C@@]3(C)O[C@@H]3C3=CC(C=O)=C(C1)O3)[C@@H]2OC(C)=O` [keikipukalide C (3), keikipukalide C], the IC50 at 72 h was above 50 µg/mL.
The result for `C=C(C)[C@H]1CC2=C(C=O)C=C(O2)[C@H]2O[C@]2(C)C[C@@H]2OC(=O)/C(=C\[C@H]1OC(C)=O)[C@H]2OC(C)=O` [keikipukalide B (2), keikipukalide B] reads above 50 µg/mL; that for `C=C(C)[C@@H]1CC(=O)[C@H]2[C@H](C1)[C@@H]1C(=O)O[C@@H]3C[C@]4(C)O[C@H]2C(=O)[C@@H]4[C@H]13` [ineleganolide (7), ineleganolide], above 50 µg/mL.

In general, IC50 refers to the concentration needed to halve the response being measured. A high value points to lower potency.
